Patent US20050038044A1, “Use of propionyl-carnitine or one of its pharmacologically acceptable salts for the preparation of a medicine for the treatment of la peyronie's disease” (priority 2001, published 2005)

Tests used:
[1] = system: induratio penis plastica (La Peyronie's disease) at the chronic stage; experiment: Example 1: oral tamoxifen versus intravenous propionyl L-carnitine, randomised patients; assay type: in vivo, human
Procedure: (§1) The examples are based on a limited number of patients and therefore the analysis of the results was carried out only with regard to the fundamental characteristics of the disease, namely plaque area in mm^2 (as measured by means of dynamic colour Doppler ultrasonography) and curvature of the artificially erect penis induced by intracavernous injection of 20 μg of prostaglandin E1.
40 subjects (mean age 52, range 44-61) with induratio penis plastica (La Peyronie's disease) at the chronic stage were randomised […] intravenous propionyl L-carnitine 300×2 mg/day for 3 months, and the second group to therapy with oral tamoxifen 20×2 mg/day. The variables measured were plaque area by means of dynamic colour Doppler ultrasonography and penile curvature, which was present in 16 patients per group. […] Intraplaque verapamil was not used in these patients.
The results are presented in Table 1, where the data are expressed as mean±standard deviation (S.D.).

[2] = system: induratio penis plastica in the early chronic stage; experiment: Example 2: oral tamoxifen versus intramuscular propionyl L-carnitine, randomised patients; assay type: in vivo, human
Procedure: as §1
30 subjects (mean age 50, range 42-63) with induratio penis plastica in the early chronic stage were randomised to two groups of 15 patients each. The first group was submitted to therapy with intramuscular propionyl L-carnitine 300×2 mg/day for 3 months, and the second group to therapy with oral tamoxifen 20×2 mg/day. The variables measured were plaque area (in all subjects) and penile curvature, which was present in 12 subjects per group. […] Intraplaque verapamil was not used in these patients.
The results are presented in Table 2, where the data are expressed as mean±standard deviation (S.D.).

[3] = system: induratio penis plastica in the chronic stage; experiment: Example 3: intraplaque triamcinolone acetonide versus intraplaque propionyl L-carnitine; assay type: in vivo, human
Procedure: as §1
In this case […] the study population consisted of 34 patients (mean age 50, range 44-63) with induratio penis plastica in the chronic stage, who presented an irremediable intolerance to intraplaque verapamil.
17 were submitted to intraplaque infiltrations with propionyl L-carnitine 300 mg, 1 infiltration per week for 10 weeks, and 17 to intraplaque infiltrations with triamcinolone acetonide 40 mg (Kenacort® Squibb), 1 infiltration per week for 10 weeks. The variables measured were plaque area in mm^2 by dynamic colour Doppler ultrasonography and the curvature of the artificially erect penis in degrees.
The results are presented in Table 3, where the data are expressed as mean±standard deviation (S.D.).

[4] = system: advanced La Peyronie's disease; experiment: Example 4: randomised double-blind study, intraplaque verapamil plus oral propionyl L-carnitine or tamoxifen; assay type: in vivo, human; conditions: curvature, plaque area, I.I.E.F. 15 score, EDV, RI
Procedure: The study was conducted according to a randomised double-blind protocol. […] The data were collected 6 months after the end of therapy when the initial history taking and semeiological examination were repeated. […] I.I.E.F. 15 score; • V. Peak systolic velocity (PSV) (cm/sec), end-diastolic velocity (EDV) (cm/sec) and the resistivity index (RI) of the right and left cavernous arteries using dynamic Doppler ultrasonography; • VI. […] Need for penis straightening surgery and/or for straightening and a prosthesis, the results being classified as presence or absence of any such need; • VIII. Side effects classified as presence or absence of side effects.

[5] = system: induratio penis plastica at an advanced chronic stage; experiment: Example 6: oral propionyl L-carnitine versus oral acetyl L-carnitine, each plus intraplaque verapamil; assay type: in vivo, human
Procedure: 20 subjects (mean age 48, range 40-61) with induratio penis plastica at an advanced chronic stage were randomised to two groups of 10 patients each. The first group was submitted to therapy with oral propionyl L-carnitine (PLC) 1×2 g/day 3 months and intraplaque verapamil 10 mg (10 infiltrations, 1 a week), while the second group was submitted to therapy with oral acetyl L-carnitine (ALC) 1×2 g/day for 3 months+intraplaque verapamil 10 mg (10 infiltrations, 1 a week). The variables measured were plaque area by dynamic colour Doppler penile ultrasonography. In view of the limited number of subjects in the sample it was not possible to carry out any analysis of other data; in any event, the size of the plaque is the most important variable when monitoring La Peyronie's disease, since all the other symptoms depend on the extent of the plaque (Belgrano, ibid.).
The results are presented in Table 14, where the data are expressed as mean±standard deviation (S.D.).

[6] = system: chemically induced inflammation of both the skin and the arteries; conditions: rats; cited from earlier work
[7] = system: La Peyronie's disease in the early stages; conditions: oral treatment; acute and early chronic stages; cited from earlier work
[8] = after therapy, PLC intravenous 300×2 mg/day, tamoxifen oral 20×2 mg/day, 3 months
[9] = before therapy, artificially erect penis, 16 patients per group
[10] = after therapy, PLC intramuscular 300×2 mg/day, tamoxifen oral 20×2 mg/day, 3 months
[11] = before therapy, 12 subjects per group
[12] = after therapy, intraplaque PLC 300 mg or triamcinolone acetonide 40 mg, 1 infiltration per week for 10 weeks
[13] = after therapy, oral 1×2 g/day for 3 months + intraplaque verapamil 10 mg (10 infiltrations, 1 a week)

Compound	Curvature [1, 8]	Plaque area [1, 8]	Curvature [1, 9]	Plaque area ([1]; before therapy, mean)	Curvature [2, 10]	Plaque area [2, 10]	Curvature [2, 11]	Plaque area ([2]; before therapy, mean)	Curvature [3, 12]	Plaque area [3, 12]	Curvature ([3]; before therapy)	Plaque area ([3]; before therapy, mean)	Plaque area [5, 13]	Plaque area ([5]; before therapy, mean)	Protection against chemically induced inflammation, in words [6]	further results
CCC(=O)O[C@H](CC(=O)[O-])C[N+](C)(C)C [PLC, propionyl L-carnitine]	20.06 degrees	19.2 mm^2	25.31 degrees	25.6 mm^2	13.00 degrees	6.47 mm^2	17.75 degrees	11.1 mm^2	14.77 degrees	15.47 mm^2	20.38 degrees	26.65 mm^2	7.9 mm^2	16.4 + mm^2	capable of affording protection	Reduction of plaque area and curvature of the artificially erect penis, in words ([1]; intravenous PLC compared with oral tamoxifen): significantly greater extent than tamoxifen; Reduction of plaque area and curvature of the artificially erect penis, in words ([2]; intramuscular PLC compared with oral tamoxifen): significantly greater extent than tamoxifen; Activity on plaque area and curvature, in words ([3]; intraplaque PLC compared with intraplaque triamcinolone acetonide): significantly more active than triamcinolone acetonide; Activity on the variables characterising the disease, in words [4]: significantly more active than combined tamoxifen and verapamil; Reduction of plaque area, in words ([5]; PLC plus intraplaque verapamil compared with ALC plus intraplaque verapamil): significantly greater extent than acetyl L-carnitine plus intraplaque verapamil
C[N+](C)(C)C[C@H](O)CC(=O)[O-] [L-carnitine]															not being shared	
CC/C(=C(\c1ccccc1)c1ccc(OCCN(C)C)cc1)c1ccccc1 [Tamoxifen, tamoxifen, reference compound]	23.06 degrees	25.2 mm^2	24.31 degrees	26.8 mm^2	16.58 degrees	9.07 mm^2	18.08 degrees	11.6 mm^2								
CC(=O)O[C@H](CC(=O)[O-])C[N+](C)(C)C [ALC, acetyl L-carnitine, reference compound]													11.8 mm^2	16.3 mm^2	not being shared	Activity in the treatment of La Peyronie's disease, in words [7]: significantly more active than tamoxifen
CC1(C)O[C@@H]2C[C@H]3[C@@H]4CCC5=CC(=O)C=C[C@]5(C)[C@@]4(F)[C@@H](O)C[C@]3(C)[C@]2(C(=O)CO)O1 [Triamcinolone, triamcinolone acetonide, reference compound]									23.15 degrees	25.35 mm^2	22.69 degrees	25.23 mm^2				
